Where two headings read alike, the source gives them in different places.
Assays:
[1] = test system: Glutamate receptors expressed in primary cultures of rat cerebral cortex neurocytes; assay: Electrophysiological evaluation (patch clamp whole cell) in primary cultures of rat cerebral cortex neurocytes; type: cell-based
Source text: Electrophysiological evaluation in primary cultures of rat cerebral cortex neurocytes

KA receptors = assay: Radiobinding assay in rat brain synaptic membrane samples, [^3 H] kainic acid (KA receptors); type: binding; settings: [^3 H] kainic acid 1 nM, 4° C., 1 hour; for IC50: 100 mM Tris-acetate pH 7.1, read-out: IC50, inhibition of [^3 H] kainic acid binding
Method: (§1) Radiobinding assay in rat brain synaptic membrane samples
(§2) Rat brain synaptic membrane samples were prepared according to the described protocols (London, E. D., Coyle, J. T., Mol. Pharmacol. 1979, 15, 492; Murphy, D. E., Snowhill, E. W.; Williams, M., Neurochem. Res. 1987, 12, 775 and Murphy, D. E., Hutchison, A. J., Hurt, S. D., Williams, M., Sills, M. A., Br. J. Pharmacol. 1988, 95, 932). Radioligands and incubation conditions used in the binding assay as well as experimental results are as follows:
[Conditions]: ligand [^3 H] kainic acid 1 nM; incubation medium 100 mM Tris-acetate buffer (pH 7.1); incubation condition 4° C., 1 hour.

rats = settings: prior art statement; cited from earlier work
AMPA receptors = assay: Radiobinding assay in rat brain synaptic membrane samples, [^3 H] AMPA (AMPA receptors); type: binding; settings: [^3 H] AMPA 5 nM, 4° C., 1 hour; for IC50: 100 mM KSCN/50 mM Tris-acetate pH 7.4, read-out: IC50, inhibition of [^3 H] AMPA binding
Method: as §1, §2
[Conditions]: ligand [^3 H] AMPA 5 nM; incubation medium 100 mM KSCN/50 mM Tris-acetate buffer (pH 7.4); incubation condition 4° C., 1 hour.

DDY mouse = assay: Intraperitoneal administration to mice; type: in vivo
Method: Intraperitoneal administration to mice
Compound (1) was diluted with purified water and intraperitoneally injected into a DDY mouse (male, 15 g).

NMDA receptors = assay: Radiobinding assay in rat brain synaptic membrane samples, [^3 H] CGS-19755 (NMDA receptors); type: binding; settings: [^3 H] CGS-19755 10 nM; 50 mM Tris-acetate pH 8.0; 4° C., 1 hour
Method: as §1, §2
[Conditions]: ligand [^3 H] CGS-19755 10 nM; incubation medium 50 mM Tris-acetate buffer (pH 8.0); incubation condition 4° C., 1 hour.

[2] = inward current, patch clamp whole cell; cultures grown 10-21 days
[3] = read-out: EC50, inward current; patch clamp whole cell; cultures grown 10-21 days

Compound: N#Cc1cc2[nH]c(=O)c(=O)[nH]c2cc1[N+](=O)[O-] [CNQX, 6-cyano-7-nitroquinoxaline-2,3-dione]
- inhibition of the current induced by Compound (1) ([1]; current induced by Compound (1)): significantly inhibited

Compound: C=C(C)[C@H]1CN[C@H](C(=O)O)[C@H]1CC(=O)O [Kainic acid, kainic acid]
- IC50 (KA receptors): 0.0043 ± 0.0005 µM
- Max response [1, 2]: 1.31 nA
- EC50 [1, 3]: 40 µM
- lesions and neuronal degeneration in rats (rats): induces epileptoid lesions and neuronal degeneration in rats

Compound: Cc1onc(O)c1CC(N)C(=O)O (stereo not drawn) [AMPA, α-amino-3-hydroxy-5-methyl-4-isoxazolepropionic acid]
- IC50 (AMPA receptors): 0.0056 ± 0.0011 µM
- Max response [1, 2]: 1.26 nA
- EC50 ([1]; patch clamp whole cell; cultures grown 10-21 days; read-out: EC50, inward current): 4 µM

Compound: N[C@@H](CCC(=O)O)C(=O)O [Glutamic acid, L-glutamic acid, reference compound]
- IC50 (KA receptors): 0.11 ± 0.018 µM
- IC50 (AMPA receptors): 0.124 ± 0.041 µM

Compound: CNC1C(O)COC2CC(CC(N)C(=O)O)(C(=O)O)OC21 (centres unmarked) [Compound (1), dysiherbaine]
- behavioural effect, low dose (DDY mouse; 20 μg/kg i.p., male DDY mouse): repeat scratching on the flank
- duration of repeated scratching on the flank (DDY mouse; 20 μg/kg i.p., male DDY mouse): 10 to 20 min
- behavioural effect, moderate dose (DDY mouse; 1.3 mg/kg i.p., male DDY mouse): epileptoid spasm
- recovery, moderate dose (DDY mouse; 1.3 mg/kg i.p., male DDY mouse): recovered from this condition on the following day
- effect, higher dose (DDY mouse; 6.5 mg/kg i.p., male DDY mouse): died in about 40 minutes after violent attack
- time to death (DDY mouse; 6.5 mg/kg i.p., male DDY mouse): about 40 minutes
- in vivo activity compared with domoic acid (DDY mouse; compared with known KA agonist domoic acid): stronger in vivo activity than a known KA agonist domoic acid
- IC50 (KA receptors): 0.059 ± 0.0078 µM
- inhibition of [^3 H] kainic acid binding to KA receptors (KA receptors; pH 7.1): concentration-dependently inhibited
- IC50 (AMPA receptors): 0.224 ± 0.022 µM
- inhibition of [^3 H] AMPA binding to AMPA receptors (AMPA receptors; pH 7.4): concentration-dependently inhibited
- inhibition of [^3 H] CGS-19755 binding to NMDA receptors (NMDA receptors): did not inhibit
- inward current compared with kainic acid ([1]; compared with kainic acid): stronger inward current than kainic acid
- Max response [1, 2]: 1.40 nA
- induction of inward current ([1]; patch clamp whole cell): concentration-dependently induced a strong inward current
- EC50 [1, 3]: 4 µM

From patent US6147230A, “Amino acid dysiherbaine” (priority 1996, dated 2000)
